In US20240300980A1, “HETEROCYCLIC COMPOUNDS AS KRAS INHIBITOR, AND PREPARATION THEREFOR AND USE THEREOF IN TREATMENT” (SHANGHAI KECHOW PHARMA, INC., priority 2021, published 2024):
Where two headings read alike, the source gives them in different places.

System: AGS cells (KRAS^G12D)
Test: Detection of cell proliferation in vitro by MTT/MTS method (cell activity experiment)
Assay type: cell-based
Conditions: AGS cells, MTT/MTS, 3 days of drug treatment, read-out: AGS IC50
Outline: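 KRAS G12D AGS cells seeded at 1000 per well, compound added 24 h later, 0.5% final DMSO. Viability read after 3 days of treatment by MTT (solubilised in DMSO) or MTS, 4 h, absorbance 490 nm. IC50 from dose–response curves versus DMSO control.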

Row | Structure (SMILES) | IC50 (Homo sapiens, AGS, 72 h) [nM] | IC50 [nM]
1 | C[C@@H]1CCCc2cc(O)cc(-c3ncc4c(N5CC6CCC(C5)N6)nc(OC[C@@]56CCCN5C[C@H](F)C6)nc4c3F)c21 (single isomer, unassigned) [Example 225, (R)-4-(4-((1R,5S)-3,8-diazabicyclo[3.2.1]octan-3-yl)-8-fluoro-2-(((2R,7aS)-2-fluorotetrahydro-1H-pyrrolizin-7a(5H)-yl)methoxy)pyrido[4,3-d]pyrimidin-7-yl)-5-methyl-5,6,7,8-tetrahydronaphthalen-2-ol or (S)-4-(4-((1R,5S)-3,8-diazabicyclo[3.2.1]octan-3-yl)-8-fluoro-2-(((2R,7aS)-2-fluorotetrahydro-1H-pyrrolizin-7a(5H)-yl)methoxy)pyrido[4,3-d]pyrimidin-7-yl)-5-methyl-5,6,7,8-tetrahydronaphthalen-2-ol] | 668 | 
2 | CCC1CCc2cc(O)cc(-c3c(Cl)cc4c(N5C[C@H]6CC[C@@H](C5)N6)nc(OC[C@@]56CCCN5C[C@H](F)C6)nc4c3F)c21 (stereo partly drawn) [Example 302, 7-(4-((1R,5S)-3,8-diazabicyclo[3.2.1]octan-3-yl)-6-chloro-8-fluoro-2-(((2R,7aS)-2-fluorotetrahydro-1H-pyrrolizin-7a(5H)-yl)methoxy)quinazolin-7-yl)-1-ethyl-2,3-dihydro-1H-inden-5-ol] | 22 | 
3 | C#Cc1c(F)ccc2cccc(-c3ccc4c(N5C[C@H]6CC[C@@H](C5)N6)nc(OC[C@]56CCCN5[C@@H](COC(=O)N(C)C)CC6)nc4n3)c12 [Example 147, ((3R,7aR)-7a-(((4-((1R, 5S)-3,8-diazabicyclo [3.2.1]octan-3-yl)-7-(8-ethynyl-7-fluoronaphthalen-1-yl)pyrido[2,3-d]pyrimidin-2-yl)oxy)methyl)hexahydro-1H-pyrrolizin-3-yl)methyl dimethylcarbamate] | > 2500 | 
4 | O=C1CCCc2cc(O)cc(-c3ncc4c(N5C[C@H]6CC[C@@H](C5)N6)nc(OC[C@@]56CCCN5C[C@H](F)C6)nc4c3F)c21 [Example 249, 8-(4-((1R,5S)-3,8-diazabicyclo[3.2.1]octan-3-yl)-8-fluoro-2-(((2R,7aS)-2-fluorotetrahydro-1H-pyrrolizin-7a(5H)-yl)methoxy)pyrido[4,3-d]pyrimidin-7-yl)-6-hydroxy-3,4-dihydronaphthalen-1(2H)-one] | > 2500 | 
5 | C#Cc1c(F)ccc2cc(O)cc(-c3ccc4c(NCC5(N(C)C)CCC5)nc(OC[C@@]56CCCN5C[C@H](F)C6)nc4c3F)c12 [Example 430, 4-(4-(((1-(dimethylamino)cyclobutyl)methyl)amino)-8-fluoro-2-(((2R,7aS)-2-fluorotetrahydro-1H-pyrrolizin-7a(5H)-yl)methoxy)quinazolin-7-yl)-5-ethynyl-6-fluoronaphthalen-2-ol] | 35 | 
6 | C#Cc1c(F)ccc2cc(O)cc(-c3ccc4c(C56CCN(CC5)CC6)nc(OC[C@@]56CCCN5C[C@H](F)C6)nc4c3F)c12 [Example 136, 5-ethynyl-6-fluoro-4-(8-fluoro-2-(((2R,7aS)-2-fluorotetrahydro-1H-pyrrolizin-7a(5H)-yl)methoxy)-4-(quinuclidin-4-yl)quinazolin-7-yl)naphthalen-2-ol] | > 2500 | 
7 | CCC1COc2cc(O)cc(-c3ccc4c(N5C[C@H]6CC[C@@H](C5)N6)nc(OC[C@@]56CCCN5C[C@H](F)C6)nc4c3F)c21 (stereo partly drawn) [Example 292, 4-(4-((1R,5S)-3,8-diazabicyclo[3.2.1]octan-3-yl)-8-fluoro-2-(((2R,7aS)-2-fluorotetrahydro-1H-pyrrolizin-7a(5H)-yl)methoxy)quinazolin-7-yl)-3-ethyl-2,3-dihydrobenzofuran-6-ol] | 40 | 
8 | CCC1CCc2cc(O)cc(C3=C(F)c4nc(OC[C@@]56CCCN5C[C@H](F)C6)nc(N5C[C@H]6CC[C@@H](C5)N6)c4C4=NCCN43)c21 (stereo partly drawn) [Example 408, 7-(10-((1R,5S)-3,8-diazabicyclo[3.2.1]octan-3-yl)-6-fluoro-8-(((2R,7aS)-2-fluorotetrahydro-1H-pyrrolizin-7a(5H)-yl)methoxy)-2,3-dihydroimidazo[1′,2′:1,2]pyrido[4,3-d]pyrimidin-5-yl)-1-ethyl-2,3-dihydro-1H-inden-5-ol] | 41 | 
9 | Oc1cc(-c2ccc3c(N4C[C@H]5CC[C@@H](C4)N5)nc(OC[C@@]45CCCN4C[C@H](F)C5)nc3n2)c2c(F)cccc2c1 [Example 143, 4-(4-((1R,5S)-3,8-diazabicyclo[3.2.1]octan-3-yl)-2-(((2R,7aS)-2-fluorotetrahydro-1H-pyrrolizin-7a(5H)-yl)methoxy)pyrido[2,3-d]pyrimidin-7-yl)-5-fluoronaphthalen-2-ol] | > 2500 | 
10 | C#Cc1c(F)ccc2cc(O)cc(-c3ncc4c(N5CC6CCNC6C5)nc(OC[C@@]56CCCN5C[C@H](F)C6)nc4c3F)c12 (stereo partly drawn) [Example 54, 5-ethynyl-6-fluoro-4-(8-fluoro-2-(((2R,7aS)-2-fluorotetrahydro-1H-pyrrolizin-7a(5H)-yl)methoxy)-4-(hexahydropyrrolo[3,4-b]pyrrol-5(1H)-yl)pyrido [4,3-d]pyrimidin-7-yl) naphthalen-2-ol] | > 2500 | 
11 | C#Cc1c(F)ccc2cc(O)cc(-c3ncc4c(N5C[C@H]6CC[C@@H](C5)S6(=O)=O)nc(OC[C@@]56CCCN5C[C@H](F)C6)nc4c3F)c12 [Example 23, (1R,5S)-3-(7-(8-ethynyl-7-fluoro-3-hydroxynaphthalen-1-yl)-8-fluoro-2-(((2R, 7aS)-2-fluorotetrahydro-1H-pyrrolizin-7a(5H)-yl)methoxy)pyrido[4,3-d]pyrimidin-4-yl)-8-thia-3-azabicyclo[3.2.1] octane 8,8-dioxide] | 6950 | 
12 | Oc1cc(-c2ccc3c(N4C[C@H]5CC[C@@H](C4)[C@@H]5F)nc(OC[C@@]45CCCN4C[C@H](F)C5)nc3c2F)c2c(F)c(F)ccc2c1 [Example 126, 5,6-difluoro-4-(8-fluoro-4-((1R,5S,8R)-8-fluoro-3-azabicyclo [3.2.1]octan-3-yl)-2-(((2R,7aS)-2-fluorotetrahydro-1H-pyrrolizin-7a(5H)-yl)methoxy)quinazolin-7-yl)naphthalen-2-ol] |  | > 2500
13 | CCc1nccc2cc(O)cc(-c3ncc4c(N5C[C@H]6CC[C@@H](C5)N6)nc(OC[C@@]56CCCN5C[C@H](F)C6)nc4c3F)c12 [Example 340, 8-(4-((1R,5S)-3,8-diazabicyclo[3.2.1]octan-3-yl)-8-fluoro-2-(((2R,7aS)-2-fluorotetrahydro-1H-pyrrolizin-7a(5H)-yl)methoxy)pyrido[4,3-d]pyrimidin-7-yl)-1-ethylisoquinolin-6-ol] | 20 | 
14 | C#Cc1c(F)ccc2cc(O)cc(-c3ncc4c(N5CCC6(CCCS6(=O)=O)CC5)nc(OC[C@@]56CCCN5C[C@H](F)C6)nc4c3F)c12 [Example 50, 8-(7-(8-ethynyl-7-fluoro-3-hydroxynaphthalen-1-yl)-8-fluoro-2-(((2R, 7aS)-2-fluorotetrahydro-1H-pyrrolizin-7a(5H)-yl)methoxy)pyrido[4,3-d]pyrimidin-4-yl)-1-thia-8-azaspiro[4.5] decane 1,1-dioxide] | > 10000 | 
15 | CCC1CCCc2cc(O)cc(-c3ccc4c(N5C[C@H]6CC[C@@H](C5)N6)nc(OC[C@@]56CCCN5C[C@H](F)C6)nc4c3F)c21 (single isomer, unassigned) [Example 290] |  | 3410
